Assay results from patent US20260335341A1, “METHODS FOR TREATING PAEDIATRIC NEUROLOGICAL DISORDERS” (Neurotech International Limited, priority 2022, published 2026).
Where “and” joins values, the source holds several entries; their conditions need not be identical. Equal values may be shown once. Read-outs that look alike come from different tables or passages of the source.

Key:
[1] = system: excitotoxic cell injury paradigm; assay: Cell death in an excitotoxic cell injury paradigm; assay type: cell-based, human
Experimental: Neuronal viability was quantified using MTT [3-(4,5-dimethylthiazol-2-yl-)-2,5-diphenyl-2H-tetrazolium bromide; Sigma]. […] Cellular excitotoxicity was achieved via glutamate activation (3 mM).

COX-2 [2] = assay: COX-2 expression, immunohistochemistry, human derived microglial cells (Example 4); assay type: cell-based; conditions: 2 μg/ml, N = 9
Experimental: (§1) Immunohistochemistry (Protein Level) Assay: Cells were fixed for 10 min with 4% paraformaldehyde (PFA) in PBS. After 3×5 minutes washing with PBS, cells were incubated with primary antibodies (anti-COX2) 1:1000 overnight at 4 °C, and after 3×5 minutes washing in PBS, cells were then incubated in appropriate fluorescent secondary antibody 1:250 (Invitrogen) for 2 hours at room temperature. After a final wash, as previous, cells nuclei were sained with DAPI in the mounting media. Photomicrographs were taken of the cells in three fields of view per well from duplicate wells and analysed using Fiji for area coverage of each marker.
(§2) The tubes are then placed in a sonication bath for 10 mins at 35-40 C. Upon completion of the sonication samples are then placed in a tray shaker (200 rpm) for 30 minutes at room temperature. Once completed the samples are then centrifuged at 4400 rpm for 5 minutes. The supernatant is collected for testing and development.
(§3) For the CBD sample, a pure standard (in powder form) was used. CBD 98% isolate was purchased as a reference standard from LGC Standards (London UK) (CAS No. 13956-29-1). The CBD standard reference was prepared at concentration of 1 mg/ml (in acetonitrile). CBD dilutions were made in acetonitrile as follows: 2 μg/ml; 6 μg/ml; and 0.1 μg/ml.

IL-12 = IL-12 level in microglial media, multiplex cytokine assay (Example 4); assay type: cell-based, human; conditions: 2 μg/ml; interleukin and interferon activation; control 99.91
Experimental: (§4) Multiplex Cytokine/Chemokine Assay: Microglia media harvested following treatment initiation was centrifuged briefly to remove particulates (300 g for 10 min). Cytokine and chemokine levels in the microglial media were measured using a Bio-Plex 200 with a 96-well magnetic plate assay according to the manufacturer's instructions (Bio-Rad). Cytokines and chemokines measured included IL-1α, IL-1β, IL-2, IL-6, IL-10, IL-12 (p70), IL-13, G-CSF, GM-CSF, IFNγ, TNFα, CXCL1 (KC), CCL2 (MCP-1), and CCL5 (RANTES). All samples were run in duplicate and data were analyzed with the Bio-Plex Manager software.
as §2, §3

TNF-alpha = TNF-alpha level in microglial media, multiplex cytokine assay (Example 4); assay type: cell-based, human; conditions: 2 μg/ml; interleukin and interferon activation
Experimental: as §4, §2, §3

COX-2 [3] = assay: COX-2 activity, immunohistochemistry, human derived microglial cells, diclofenac combination (Example 6); assay type: cell-based; parameters: unit not given here; conditions: 2 μg/ml each, I&I inflammation activation, N = 9
Experimental: as §1, with “Human derived microglial cells” for “Immunohistochemistry (Protein Level) Assay: Cells”
COX-2 is measured using the immunohistochemistry assay—as described above. […] In the treatment groups, these cells are also treated with various treatments and COX-2 expression is then assessed following these treatments (1 hr after treatment).
as §2, with “In this example, ethanol extraction was used. […] The tubes” for “The tubes”
For the CBD sample, a pure standard (in powder form) was used. CBD 98% isolate was purchased as a reference standard from LGC Standards (London UK) (CAS No. 13956-29-1). […]

human microglial cells = assay: DAPI cell viability stain (Example 4); assay type: cell-based
[4] = system: cannabinoid receptor type 1 (CB1); conditions: cited from earlier work
[5] = system: cannabinoid receptor type 2 (CB2); conditions: cited from earlier work
neutrophil = conditions: cited from earlier work
[6] = animals; cited from earlier work
[7] = Stability of NTI164 oil formulation at room temperature (UPLC)
TNF-a [8] = assay: TNF-a release from BV2 microglia, celecoxib combination (Example 7); assay type: cell-based; conditions: Celebrex 5 uM; NTI164 7.5 uM (as headed); combination Celebrex 5 uM + NTI164 7.5 ug/ml; activated control 45
Experimental: (§5) The immortalized microglia cell line, BV2, was purchased from the American Tissue Culture Collection. BV2 were cultured in RPMI media containing gentamycin and supplemented with 10% fetal bovine serum (FBS) for expansion and 5% FBS when plated for experiments. All cells were from between passage numbers 39 and 45. Cells were plated at […] and treated 24 hours after plating with phosphate buffered saline (PBS, as a control) or interleurkin-1B+interferon-γ (IL-1B+IFNγ, to induce inflammation).
as §4, with “Microglia” for “Multiplex Cytokine/Chemokine Assay: Microglia”, “that” for “and data”, “averaged for analysis, at least three samples per group were run.” for “analyzed with the Bio-Plex Manager software.”

IL-6 [9] = assay: IL-6 release from BV2 microglia, celecoxib combination (Example 7); assay type: cell-based; conditions: Celebrex 5 uM; NTI164 7.5 uM (as headed); combination Celebrex 5 uM + NTI164 7.5 ug/ml; activated control 366.33
Experimental: as §5
as §4, with “Microglia” for “Multiplex Cytokine/Chemokine Assay: Microglia”, “that” for “and data”, “averaged for analysis, at least three samples per group were run.” for “analyzed with the Bio-Plex Manager software.”

IL-1a [10] = assay: IL-1a release from BV2 microglia, celecoxib combination (Example 7); assay type: cell-based; conditions: Celebrex 5 uM; NTI164 7.5 uM (as headed); combination Celebrex 5 uM + NTI164 7.5 ug/ml; activated control 154.83
Experimental: as §5
as §4, with “Microglia” for “Multiplex Cytokine/Chemokine Assay: Microglia”, “that” for “and data”, “averaged for analysis, at least three samples per group were run.” for “analyzed with the Bio-Plex Manager software.”

GM-CSF [11] = assay: GM-CSF release from BV2 microglia, celecoxib combination (Example 7); assay type: cell-based; conditions: Celebrex 5 uM; NTI164 7.5 uM (as headed); combination Celebrex 5 uM + NTI164 7.5 ug/ml; activated control 768.13
Experimental: as §5
as §4, with “Microglia” for “Multiplex Cytokine/Chemokine Assay: Microglia”, “that” for “and data”, “averaged for analysis, at least three samples per group were run.” for “analyzed with the Bio-Plex Manager software.”

TNF-a [12] = assay: TNF-a, prednisone combination (Example 8); assay type: cell-based; conditions: PDN 5 uM; NTI164 7.5 ug/ml; combination PDN 5 uM + NTI164 7.5 ug/ml; activated control 45
Source text: (§6) Student's t-test was used for statistical analysis.

IL-6 [13] = assay: IL-6, prednisone combination (Example 8); assay type: cell-based; conditions: PDN 5 uM; NTI164 7.5 ug/ml; combination PDN 5 uM + NTI164 7.5 ug/ml; activated control 366.33
Source text: as §6

IL-1a [14] = assay: IL-1a, prednisone combination (Example 8); assay type: cell-based; conditions: PDN 5 uM; NTI164 7.5 ug/ml; combination PDN 5 uM + NTI164 7.5 ug/ml; activated control 154.83
Source text: as §6

GM-CSF [15] = assay: GM-CSF, prednisone combination (Example 8); assay type: cell-based; conditions: PDN 5 uM; NTI164 7.5 ug/ml; combination PDN 5 uM + NTI164 7.5 ug/ml; activated control 768.13
Source text: as §6

[16] = in vitro, at low concentrations

Structure (SMILES): C=C(C)[C@@H]1CCC(C)=C[C@H]1c1c(O)cc(CCCCC)cc1O [CBD, Cannabidiol]
- Toxicity / effect on cell number and cell viability [1]: toxic in this paradigm
- COX-2 expression, average +/- SEM, exposure after inflammatory insult (COX-2 [2]; exposure 1 hour after inflammatory insult (interleukin and interferon gamma), control 104.26): 76.32 +/− 7.95 (SEM)
- COX-2 expression, average +/- SEM, exposure before inflammatory insult (COX-2 [2]; exposure 1 hour prior to inflammatory insult (interleukin and interferon gamma), control 94.47): 84.82 +/− 7.65 (SEM)
- IL-12, average +/- SD (IL-12): 84.40 +/− 6.54
- TNF-alpha, average +/- SD (TNF-alpha): 71.13 +/− 12.81
- COX-2 activity, individual replicate (COX-2 [3]; 1 hr after treatment): 42.4 and 44.92 and 109.99 and 136.99 and 117.84 and 43.14 and 77.81 and 59.02 and 73.8
- COX-2 activity, mean (COX-2 [3]; activated control mean 101.39): 78.43
- Cell death by DAPI cell viability stain (human microglial cells): DAPI cell viability stain: No cell death was detected and assessed as per the DAPI cell staining method.
- Allosteric modulation of CB1 [4]: negative allosteric modulator of CB1
- Affinity for CB1 ([4]; compared to Δ9-THC): low affinity
- CB1 antagonistic effect [4, 16]: weak CB1 and CB2 antagonistic effect
- Allosteric modulation of CB1 ([4]; listed as Cannabidiol): negative allosteric modulator of the cannabinoid CB1 receptor
- Affinity for CB2 ([5]; compared to Δ9-THC): low affinity
- CB2 antagonistic effect [5, 16]: weak CB1 and CB2 antagonistic effect
- Neutrophil chemotaxis and proliferation (neutrophil): inhibit neutrophil chemotaxis and proliferation
- Oral bioavailability [6]: 13-19%
- Cannabinoid content of NTI164, Day 14 [7]: 0.56 mg/mL
- Cannabinoid content of NTI164, Day 0 ([7]; NTI164 oil, room temperature, Day 0): 0.46 mg/mL
- Cannabinoid content of NTI164, Day 2 ([7]; NTI164 oil, room temperature, Day 2): 0.56 mg/mL
- Cannabinoid content of NTI164, Day 7 ([7]; NTI164 oil, room temperature, Day 7): 0.53 mg/mL
- Cannabinoid content of NTI164, Day 28 ([7]; NTI164 oil, room temperature, Day 28): 0.54 mg/mL
- Cannabinoid content of NTI164, Week 5 ([7]; NTI164 oil, room temperature, Week 5): 0.60 mg/mL
- Cannabinoid content of NTI164, Week 6 ([7]; NTI164 oil, room temperature, Week 6): 0.51 mg/mL
- Cannabinoid content of NTI164, Week 32 ([7]; NTI164 oil, room temperature, Week 32): 0.48 mg/mL

Structure (SMILES): Cc1ccc(-c2cc(C(F)(F)F)nn2-c2ccc(S(N)(=O)=O)cc2)cc1 [Celebrex, celecoxib]
- TNF-a (TNF-a [8]): 30.17
- IL-6 (IL-6 [9]): 128.50
- IL-1a (IL-1a [10]): 112.5
- GM-CSF (GM-CSF [11]): 511.97

Structure (SMILES): C[C@]12C=CC(=O)C=C1CC[C@@H]1[C@@H]2C(=O)C[C@@]2(C)[C@H]1CC[C@]2(O)C(=O)CO [PDN, Prednisone]
- TNF-a (TNF-a [12]): 30.17
- IL-6 (IL-6 [13]): 228.50
- IL-1a (IL-1a [14]): 144.5
- GM-CSF (GM-CSF [15]): 611.97
